Literature values as cited in US20070275949A1, “Benzazepine Derivatives and Methods of Prophylaxis or Treatment of 5Ht2C Receptor Associated Diseases” (Arena Pharmaceuticals, Inc., priority 2003, published 2007).

System: guinea pigs
Conditions: in vivo, repeat administration

## C[C@H](N)Cc1cccc(C(F)(F)F)c1 [dexnorfenfluramine]
  amyloid precursor protein (APPs) secretion: stimulated
  levels of Aβ production: reducing
